In ChEMBL document CHEMBL1201862, “PubChem BioAssay data set” (2004):
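1) Cells in 96-well plates. 2) Compound, 48 h, 5 concentrations. 3) Linear interpolation between surrounding doses. 4) Unreached endpoint = highest concentration. At the GI50, growth is halved.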 Active and inactive are the calls of the source. Cut-off read from the data, not from the text of the source: active = GI50 up to about 1.1 µM and inactive = higher.

Tests used:
Assay in all cases: inhibition of tumour cell growth, NCI panel, 48 h
HCC 2998 = system: HCC 2998
TK-10 = system: TK-10
A549 = system: A549
T47D = system: T47D
HOP-92 = system: HOP-92
BT-549 = system: BT-549
KM12 = system: KM12
HOP-62 = system: HOP-62
A498 = system: A498
MDA-N = system: MDA-N
NCI-H522 = system: NCI-H522
COLO 205 = system: COLO 205
SNB-19 = system: SNB-19
MDA-MB-231 = system: MDA-MB-231
SF-295 = system: SF-295
NCI-H23 = system: NCI-H23
MDA-MB-435 = system: MDA-MB-435
UACC-62 = system: UACC-62
CCRF-CEM = system: CCRF-CEM
SK-OV-3 = system: SK-OV-3
SK-MEL-2 = system: SK-MEL-2
RPMI-8226 = system: RPMI-8226
UO-31 = system: UO-31
SNB-75 = system: SNB-75
786-0 = system: 786-0
EKVX = system: EKVX
OVCAR-4 = system: OVCAR-4
SW-620 = system: SW-620
NCI-H226 = system: NCI-H226
UACC-257 = system: UACC-257
ACHN = system: ACHN
HCT-15 = system: HCT-15
OVCAR-8 = system: OVCAR-8
DU-145 = system: DU-145
IGROV-1 = system: IGROV-1
SF-539 = system: SF-539
HL-60 = system: HL-60
NCI-H460 = system: NCI-H460
OVCAR-3 = system: OVCAR-3
MCF7 = system: MCF7
SK-MEL-28 = system: SK-MEL-28
MOLT-4 = system: MOLT-4
SK-MEL-5 = system: SK-MEL-5
SR = system: SR
M14 = system: M14
U-251 = system: U-251
Malme-3M = system: Malme-3M
Hs-578T = system: Hs-578T
K562 = system: K562
HT-29 = system: HT-29
HCT-116 = system: HCT-116
OVCAR-5 = system: OVCAR-5
RXF 393 = system: RXF 393
CAKI-1 = system: CAKI-1
PC-3 = system: PC-3
SF-268 = system: SF-268
LOX IMVI = system: LOX IMVI
SN12C = system: SN12C
NCI/ADR-RES = system: NCI/ADR-RES

Measured: GI50

S=C(N/N=C(/c1ccccc1)c1ccccn1)N1CCCCC1
< 0.0234 µM: HCT-15
active: HCC 2998 0.219 µM | TK-10 0.114 µM | A549 < 0.0302 µM | T47D 0.0927 µM | HOP-92 0.546 µM | KM12 < 0.0292 µM | HOP-62 0.0785 µM | A498 0.407 µM | MDA-N < 0.038 µM | NCI-H522 < 0.0344 µM | COLO 205 < 0.0214 µM | SNB-19 0.966 µM | MDA-MB-231 0.0273 µM | SF-295 < 0.031 µM | NCI-H23 0.0459 µM | MDA-MB-435 0.134 µM | UACC-62 0.16 µM | CCRF-CEM < 0.0134 µM | SK-OV-3 < 0.0387 µM | SK-MEL-2 0.741 µM | RPMI-8226 < 0.0202 µM | UO-31 0.0716 µM | 786-0 < 0.0286 µM | EKVX < 0.0318 µM | SW-620 < 0.0226 µM | NCI-H226 0.134 µM | UACC-257 < 0.0183 µM | ACHN < 0.0443 µM | OVCAR-8 < 0.0281 µM | DU-145 0.618 µM | IGROV-1 < 0.0164 µM | SF-539 0.424 µM | HL-60 0.01 µM | NCI-H460 < 0.0211 µM | OVCAR-3 0.01 µM | MCF7 0.0425 µM | SK-MEL-28 0.604 µM | MOLT-4 < 0.0135 µM | SK-MEL-5 < 0.0249 µM | SR < 0.0166 µM | M14 0.001 µM | U-251 < 0.0244 µM | Malme-3M 0.441 µM | Hs-578T 0.237 µM | K562 < 0.0161 µM | HT-29 < 0.016 µM | HCT-116 0.01 µM | OVCAR-5 0.0455 µM | CAKI-1 0.143 µM | PC-3 < 0.0151 µM
inactive: BT-549 1.25 µM | SNB-75 1.25 µM | OVCAR-4 1.5 µM | RXF 393 1.28 µM

Cc1nc(C(N)=S)sc1C(=O)CC(=O)C(=O)Nc1cccc(Cl)c1C
inactive: SF-268 > 100 µM | HCC 2998 > 100 µM | TK-10 > 100 µM | A549 > 100 µM | T47D > 100 µM | HOP-92 > 100 µM | BT-549 > 100 µM | LOX IMVI > 100 µM | KM12 > 100 µM | HOP-62 > 100 µM | A498 > 100 µM | MDA-N > 100 µM | NCI-H522 > 100 µM | SNB-19 > 100 µM | MDA-MB-231 > 100 µM | SF-295 > 100 µM | NCI-H23 > 100 µM | MDA-MB-435 > 100 µM | UACC-62 > 100 µM | CCRF-CEM > 100 µM | SK-OV-3 > 100 µM | SK-MEL-2 > 100 µM | SN12C > 100 µM | NCI/ADR-RES > 100 µM | RPMI-8226 > 100 µM | UO-31 > 100 µM | SNB-75 > 100 µM | 786-0 > 100 µM | EKVX > 100 µM | OVCAR-4 > 100 µM | SW-620 > 100 µM | NCI-H226 > 100 µM | UACC-257 > 100 µM | ACHN > 100 µM | OVCAR-8 > 100 µM | IGROV-1 > 100 µM | SF-539 > 100 µM | HL-60 > 100 µM | NCI-H460 > 100 µM | OVCAR-3 > 100 µM | MCF7 > 100 µM | SK-MEL-28 > 100 µM | MOLT-4 > 100 µM | SK-MEL-5 > 100 µM | SR > 100 µM | M14 > 100 µM | U-251 > 100 µM | Malme-3M > 100 µM | Hs-578T > 100 µM | K562 > 100 µM | HT-29 > 100 µM | HCT-116 > 100 µM | OVCAR-5 > 100 µM | RXF 393 > 100 µM | CAKI-1 > 100 µM | PC-3 > 100 µM
> 100 µM: HCT-15
